Data as given in patent US20250179051A1, “PYRIMIDINLY-OXY-QUINOLINE BASED HERBICIDAL COMPOUNDS” (SYNGENTA CROP PROTECTION AG, priority 2022, published 2025).

What was measured:
Type in all cases: in vivo
Conditions in all cases: 250 g/ha, evaluated after 13 days, five-point scale
[1] = tested on: Amaranthus palmeri (AMAPA); test: Post-emergence herbicide glasshouse test
Description: (§1) Seeds of a variety of test species are sown in standard soil in pots Amaranthus retoflexus (AMARE), Amaranthus palmeri (AMAPA), Echinochloa crus-galli (ECHCG), Ipomoea hederacea (IPOHE), Setaria faberi (SETFA). After cultivation for one day (pre-emergence) or after 8 days cultivation (post-emergence) under controlled conditions in a glasshouse (at 24/16° C., day/night; 14 hours light; 65% humidity), the plants are sprayed with an aqueous spray solution derived from the formulation of the technical active ingredient in acetone/water (50:50) solution containing 0.5% Tween 20 (polyoxyethelyene sorbitan monolaurate, CAS RN 9005-64-5). Compounds are applied at 250 g/ha unless otherwise stated. The test plants are then grown in a glasshouse under controlled conditions in a glasshouse (at 24/16° C., day/night; 14 hours light; 65% humidity) and watered twice daily. After 13 days for pre and post-emergence, the test is evaluated for the percentage damage caused to the plant. The biological activities are shown in the following table on a five-point scale (5=81-100%; 4=61-80%; 3=41-60%; 2=21-40%; 1=0-20%).

[2] = tested on: Setaria faberi (SETFA); test: Post-emergence herbicide glasshouse test
Description: as §1

[3] = tested on: Amaranthus retoflexus (AMARE); test: Post-emergence herbicide glasshouse test
Description: as §1

[4] = tested on: Ipomoea hederacea (IPOHE); test: Post-emergence herbicide glasshouse test
Description: as §1

[5] = tested on: Echinochloa crus-galli (ECHCG); test: Post-emergence herbicide glasshouse test
Description: as §1

[6] = tested on: Amaranthus palmeri (AMAPA); test: Pre-emergence herbicide glasshouse test
Description: as §1

[7] = tested on: Setaria faberi (SETFA); test: Pre-emergence herbicide glasshouse test
Description: as §1

[8] = tested on: Amaranthus retoflexus (AMARE); test: Pre-emergence herbicide glasshouse test
Description: as §1

[9] = tested on: Ipomoea hederacea (IPOHE); test: Pre-emergence herbicide glasshouse test
Description: as §1

[10] = tested on: Echinochloa crus-galli (ECHCG); test: Pre-emergence herbicide glasshouse test
Description: as §1

Structure (SMILES) | percentage damage caused to the plant, AMAPA [1] | percentage damage caused to the plant, SETFA [2] | percentage damage caused to the plant, AMARE [3] | percentage damage caused to the plant, IPOHE [4] | percentage damage caused to the plant, ECHCG [5] | percentage damage caused to the plant, AMAPA [6] | percentage damage caused to the plant, SETFA [7] | percentage damage caused to the plant, AMARE [8] | percentage damage caused to the plant, IPOHE [9] | percentage damage caused to the plant, ECHCG [10]
C=CCON=CCCc1nc(C(F)(F)F)nc2cccc(Oc3ncc(Cl)cn3)c12 [Compound 1.011] | 4 (4=61-80%) | 4 (4=61-80%) | 5 (5=81-100%) | 2 (2=21-40%) | 4 (4=61-80%) | 5 (5=81-100%) | 5 (5=81-100%) | 5 (5=81-100%) | 2 (2=21-40%) | 4 (4=61-80%)
COCCCc1nc(C(F)(F)F)nc2cccc(Oc3ncc(Cl)cn3)c12 [Compound 1.024] | 3 (3=41-60%) | 4 (4=61-80%) | 4 (4=61-80%) | 3 (3=41-60%) | 5 (5=81-100%) | 5 (5=81-100%) | 4 (4=61-80%) | 5 (5=81-100%) | 5 (5=81-100%) | 5 (5=81-100%)
FC(F)c1cc(-c2nc(C(F)(F)F)nc3cccc(Oc4ncc(Cl)cn4)c23)on1 [Compound 1.035, 5-[5-(5-chloropyrimidin-2-yl)oxy-2-(trifluoromethyl)quinazolin-4-yl]-3-(difluoromethyl)isoxazole] | 4 (4=61-80%) | 2 (2=21-40%) | 4 (4=61-80%) | 1 (1=0-20%) | 1 (1=0-20%) | 5 (5=81-100%) | 3 (3=41-60%) | 5 (5=81-100%) | 1 (1=0-20%) | 2 (2=21-40%)
FC(F)(F)c1nc(-c2ncccn2)c2c(Oc3ncc(Cl)cn3)cccc2n1 [Compound 1.069] | 1 (1=0-20%) | 1 (1=0-20%) | 1 (1=0-20%) | 1 (1=0-20%) | 1 (1=0-20%) | 1 (1=0-20%) | 1 (1=0-20%) | 1 (1=0-20%) | 1 (1=0-20%) | 1 (1=0-20%)
Cc1ccc(Oc2ncc(Cl)cn2)c2c(CCC3CC3)nc(C(F)(F)F)nc12 [Compound 1.059] | 2 (2=21-40%) | 1 (1=0-20%) | 2 (2=21-40%) | 3 (3=41-60%) | 1 (1=0-20%) | 1 (1=0-20%) | 1 (1=0-20%) | 1 (1=0-20%) | 1 (1=0-20%) | 1 (1=0-20%)
CC(=O)c1nc(C(F)(F)F)nc2cccc(Oc3ncc(Cl)cn3)c12 [Compound 1.028, 1-[5-(5-chloropyrimidin-2-yl)oxy-2-(trifluoromethyl)quinazolin-4-yl]ethanone] | 4 (4=61-80%) | 2 (2=21-40%) | 4 (4=61-80%) | 3 (3=41-60%) | 1 (1=0-20%) | 5 (5=81-100%) | 3 (3=41-60%) | 5 (5=81-100%) | 1 (1=0-20%) | 2 (2=21-40%)
CO/N=C\CCc1nc(C(F)(F)F)nc2cccc(Oc3ncc(Cl)cn3)c12 [Compound 1.022, (Z)-3-[5-(5-chloropyrimidin-2-yl)oxy-2-(trifluoromethyl)quinazolin-4-yl]-N-methoxy-propan-1-imine] | 4 (4=61-80%) | 4 (4=61-80%) | 4 (4=61-80%) | 3 (3=41-60%) | 4 (4=61-80%) | 5 (5=81-100%) | 5 (5=81-100%) | 5 (5=81-100%) | 4 (4=61-80%) | 5 (5=81-100%)
Cc1ncc(-c2nc(C(F)(F)F)nc3cccc(Oc4ncc(Cl)cn4)c23)cn1 [Compound 1.014] | 1 (1=0-20%) | 1 (1=0-20%) | 1 (1=0-20%) | 1 (1=0-20%) | 1 (1=0-20%) | 2 (2=21-40%) | 1 (1=0-20%) | 2 (2=21-40%) | 1 (1=0-20%) | 1 (1=0-20%)
C=CCON=CCCc1nc(C(F)(F)F)nc2cccc(Oc3ncc(Cl)cn3)c12 [Compound 1.067] | 5 (5=81-100%) | 5 (5=81-100%) | 4 (4=61-80%) | 3 (3=41-60%) | 4 (4=61-80%) | 5 (5=81-100%) | 5 (5=81-100%) | 3 (3=41-60%) | 1 (1=0-20%) | 5 (5=81-100%)
